For one series, the system named is HeLa. The series is described as follows: Antiproliferative activity against human HeLa cells assessed as inhibition of cell growth incubated for 24 hrs by MTT assay. In kind it is functional, cell-based. (Tetrazolium assays rely on reduction of a dye to a coloured formazan, in cell work by metabolically active cells.)
The next series concerns HCT-116. Kind of series: cells. To be noted: Homo sapiens, HCT-116, 24 h.
A further series deals with HepG2. The series is described as follows: Antiproliferative activity against human HepG2 cells assessed as inhibition of cell growth incubated for 24 hrs by MTT assay. In kind it is functional, cell-based. To be noted: HepG2, 24 h.
The next series concerns HEp-2. The series is described as follows: Antiproliferative activity against human HEp-2 cells assessed as inhibition of cell growth incubated for 24 hrs by MTT assay. To be noted: HEp-2, 24 h. In kind it is functional, cell-based.
In a further series the test system is MCF7. The series is described as follows: Antiproliferative activity against human MCF7 cells assessed as inhibition of cell growth incubated for 24 hrs by MTT assay. The class given is functional, cell-based. The note with it: MCF7, 24 h.
The nature of series [1]: Selectivity index, ratio of IC50 for cytotoxicity against human WI-38 cells to IC50 for antiproliferative activity against human PC-3 cells. In kind it is toxicity, cell-based. The note with it: WI-38 cells and PC-3 cells, read-out: Ratio IC50.
A further series relates to PC-3. Kind of series: Antiproliferative activity against human PC-3 cells assessed as inhibition of cell growth incubated for 24 hrs by MTT assay. In kind it is functional, cell-based. The note with it: PC-3, 24 h.
Series [2] can be described thus: Selectivity index, ratio of IC50 for cytotoxicity against human WI-38 cells to IC50 for antiproliferative activity against human HepG2 cells. In kind it is toxicity, cell-based. To be noted: WI-38 cells and HepG2 cells, read-out: Ratio IC50.
For series [3], the target named is Epidermal growth factor receptor (Homo sapiens, UniProt P00533). The series is described as follows: Inhibition of EGFR (unknown origin) by fluorimetric assay.
Epidermal growth factor receptor, sequence (P00533 whole entry): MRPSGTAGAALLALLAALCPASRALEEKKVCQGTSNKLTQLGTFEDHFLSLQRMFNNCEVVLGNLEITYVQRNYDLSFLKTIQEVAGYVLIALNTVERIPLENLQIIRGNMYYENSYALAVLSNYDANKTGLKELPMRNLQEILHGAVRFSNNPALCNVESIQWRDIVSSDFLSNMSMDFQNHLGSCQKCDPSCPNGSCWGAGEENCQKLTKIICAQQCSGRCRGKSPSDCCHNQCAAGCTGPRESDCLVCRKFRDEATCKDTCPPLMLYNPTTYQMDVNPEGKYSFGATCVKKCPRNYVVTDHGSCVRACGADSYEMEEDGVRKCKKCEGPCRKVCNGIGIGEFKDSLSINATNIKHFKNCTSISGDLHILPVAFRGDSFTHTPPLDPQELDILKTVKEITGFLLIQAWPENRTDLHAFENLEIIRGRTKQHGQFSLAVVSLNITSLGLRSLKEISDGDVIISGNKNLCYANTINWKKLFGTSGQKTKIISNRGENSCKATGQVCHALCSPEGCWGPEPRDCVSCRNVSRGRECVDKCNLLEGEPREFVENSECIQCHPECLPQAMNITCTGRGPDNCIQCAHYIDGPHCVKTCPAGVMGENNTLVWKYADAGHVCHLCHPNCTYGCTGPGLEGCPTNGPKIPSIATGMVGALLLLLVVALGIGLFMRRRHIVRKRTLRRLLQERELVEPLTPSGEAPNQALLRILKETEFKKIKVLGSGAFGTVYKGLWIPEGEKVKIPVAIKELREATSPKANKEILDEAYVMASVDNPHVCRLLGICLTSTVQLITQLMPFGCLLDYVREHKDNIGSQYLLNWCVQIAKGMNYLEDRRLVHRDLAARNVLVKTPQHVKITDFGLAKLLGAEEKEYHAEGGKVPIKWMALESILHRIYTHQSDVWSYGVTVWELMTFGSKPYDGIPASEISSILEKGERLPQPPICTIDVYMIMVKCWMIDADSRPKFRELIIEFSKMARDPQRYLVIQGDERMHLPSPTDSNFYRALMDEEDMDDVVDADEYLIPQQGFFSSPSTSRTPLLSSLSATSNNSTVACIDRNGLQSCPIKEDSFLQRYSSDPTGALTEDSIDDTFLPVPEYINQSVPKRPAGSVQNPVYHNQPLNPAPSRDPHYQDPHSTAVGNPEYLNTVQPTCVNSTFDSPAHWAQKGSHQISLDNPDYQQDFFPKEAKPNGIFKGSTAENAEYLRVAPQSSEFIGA
A short description of series [4]: Selectivity index, ratio of IC50 for cytotoxicity against human WI-38 cells to IC50 for antiproliferative activity against human HeLa cells. The class given is toxicity, cell-based. To be noted: WI-38 cells and HeLa cells, read-out: Ratio IC50.
The nature of series [5]: Selectivity index, ratio of IC50 for cytotoxicity against human WI-38 cells to IC50 for antiproliferative activity against human HCT-116 cells. In kind it is toxicity, cell-based. The note with it: WI-38 cells and HCT-116 cells, read-out: Ratio IC50.
The nature of series [6]: Selectivity index, ratio of IC50 for cytotoxicity against human WI-38 cells to IC50 for antiproliferative activity against human HEp-2 cells. The class given is toxicity, cell-based. The note with it: WI-38 cells and HEp-2 cells, read-out: Ratio IC50.
Another series concerns the target T1, Dihydrofolate reductase (Homo sapiens, UniProt P00374).
T1 sequence (P00374 whole entry): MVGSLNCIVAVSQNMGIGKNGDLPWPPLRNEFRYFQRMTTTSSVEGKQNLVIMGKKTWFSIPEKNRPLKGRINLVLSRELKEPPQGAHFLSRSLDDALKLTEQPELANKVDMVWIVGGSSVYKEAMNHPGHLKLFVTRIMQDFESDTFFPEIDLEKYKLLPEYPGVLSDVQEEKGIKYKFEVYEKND
The series is described as follows: Inhibition of DHFR (unknown origin) incubated for 2 to 5 mins by absorbance based analysis.

The nature of series [7]: Selectivity index, ratio of IC50 for cytotoxicity against human WI-38 cells to IC50 for antiproliferative activity against human MCF7 cells. In kind it is toxicity, cell-based. The note with it: WI-38 cells and MCF7 cells, read-out: Ratio IC50.
Series [8] is described as follows: Cytotoxicity against human WI-38 cells assessed as inhibition of cell growth incubated for 24 hrs by MTT assay. The class given is toxicity, cell-based.
A short description of series [9]: Toxicity in Swiss albino mouse implanted with mouse Ehrlich cells assessed as reduction in body weight gain at 10 mg/kg, iv administered once daily for 20 days relative to control. The class given is organism-based. Also on record: scale not given: the % may be the effect or the level left. The note with it: in vivo, 480 h, time 20 day.
The nature of series [10]: Toxicity in Swiss albino mouse implanted with mouse Ehrlich cells assessed as mean body weight at 10 mg/kg, iv administered once daily for 20 days (reference value: 30 g). The class given is organism-based. The note with it: in vivo, 480 h, time 20 day.
In another series the test system is Ehrlich. The series is described as follows: Antitumor activity against mouse Ehrlich cells implanted in Swiss albino mouse assessed as reduction in tumor volume at 10 mg/kg, iv administered once daily for 20 days relative to control. In kind it is functional. On the set-up: scale not given: the % may be the effect or the level left. To be noted: time 20 day.

Description for HCT-116: Antiproliferative activity against human HCT-116 cells assessed as inhibition of cell growth incubated for 24 hrs by MTT assay

For orientation: IC50 means the midpoint of a concentration-inhibition curve. For `CC(=O)NNC(=O)c1csc(NC(C)=O)n1`, the IC50 in the series with HeLa is 57.4 µM; in the series with HCT-116, 69.3 µM; in the series on HepG2 it was 87.2 µM; in the series with HEp-2, 72.1 µM; in the series on MCF7 it was 49.4 µM.

With `CC(=O)Nc1nc(C(=O)NNC(=O)CCN2CCOCC2)cs1`, the IC50 with HeLa stood at 3.81 µM; in the series on HCT-116, 13.2 µM; in the series with PC-3, 10.5 µM; in the series on HepG2, 7.34 µM; in series [3] it was 143 nM; in the series on HEp-2 it was 9.19 µM. In addition, the IC50 amounted to 159 nM against Dihydrofolate reductase and 5.81 µM with MCF7. The selectivity ratio in series [1] was 5.08; in series [2], 7.29; in series [4], 14; in [5], 4.06; in series [6], 5.82; in series [7], 9.2. Further, the IC50 at 24 h in [8] was 53.5 µM.

Turning to `CC(=O)Nc1nc(C(=O)NNC(=O)CN2CCN(C)CC2)cs1`, the IC50 in the series on HeLa came to 78.6 µM; in the series on HCT-116 it was 91.8 µM; with HepG2 it was 83.6 µM; in the series on HEp-2, 89.9 µM; with MCF7 it was 62.8 µM.

For `CC(=O)Nc1nc(C(=O)NNC(=O)CCl)cs1`, the IC50 was determined as 35.3 µM with HeLa; 52.3 µM with HCT-116; 54.7 µM in the series with PC-3; 43.8 µM in the series with HepG2; 58 µM in the series on HEp-2; 39.1 µM in the series with MCF7.

As for `CC(=O)Nc1nc(C(=O)NNC(=O)CCN2CCN(C)CC2)cs1`, the IC50 with HeLa came to 7.92 µM; in the series on HCT-116 it was 18.4 µM; in the series with PC-3 it was 14.3 µM; with HepG2, 9.85 µM; in [3] it was 131 nM; with HEp-2, 11.2 µM. For the same molecule, the IC50 at Dihydrofolate reductase was 678 nM; with MCF7, 8.36 µM. Moreover, the selectivity ratio in series [1] was 3.27; in [2] it was 4.76; in [4], 5.92; in series [5] it was 2.54; in series [6] it was 4.17; in [7] it was 5.6. Also, the IC50 at 24 h in [8] stood at 46.9 µM.

With `CCC(=O)NNC(=O)c1csc(NC(C)=O)n1`, the IC50 in the series with HeLa amounted to 26.9 µM; in the series with HCT-116, 42.7 µM; with PC-3, 47.5 µM; in the series on HepG2, 39.3 µM; in the series on HEp-2, 43.2 µM; with MCF7, 32.8 µM.

Turning to `CC(=O)Nc1nc(C(=O)NNC(=O)CCCl)cs1`, the values for the IC50 in the series with HeLa, in the series on HEp-2 and in the series on MCF7 were 86.4 µM, 93.2 µM and 69.2 µM, respectively.

As to `CC(=O)Nc1nc(C(=O)NNC(=O)CCN2CCN(Cc3ccccc3)CC2)cs1`, the IC50 in the series with HeLa is 23.6 µM; in the series on HCT-116 it was 37.1 µM; with PC-3, 34.4 µM; in the series with HepG2 it was 28.7 µM; in the series on HEp-2, 39 µM; with MCF7, 29.3 µM.

For the molecule `CC(=O)Nc1nc(C(=O)NNC(=O)CN2CCCCC2)cs1`, the IC50 in the series with HeLa came out at 13.9 µM; with HCT-116, 24.5 µM; in the series with PC-3, 18 µM; in the series with HepG2, 12.4 µM; in the series with HEp-2, 19.7 µM; with MCF7, 16.4 µM. Besides, the selectivity ratio in series [1] worked out at 3.35; in series [2], 4.88; in series [4] it was 4.34; in series [5] it was 2.47; in [6] it was 3.07; in series [7] it was 3.68. For the same molecule, the half-maximal inhibitory concentration (IC50) at 24 h in [8] turned out to be 60.5 µM.

Regarding `CC(=O)Nc1nc(C(=O)NNC(=O)CN2CCOCC2)cs1`, the IC50 worked out at 15.5 µM in the series on HeLa; 26.4 µM with HCT-116; 29.8 µM with PC-3; 20.8 µM in the series on HepG2; 17.2 µM with HEp-2; 13.6 µM in the series on MCF7. Also, the selectivity ratio was found to be 1.25 in [1]; 1.79 in series [2]; 2.42 in series [4]; 1.41 in [5]; 2.17 in series [6]; 2.73 in [7]. Besides, the IC50 at 24 h in series [8] was 37.2 µM.

For `CC(=O)Nc1nc(C(=O)NNC(=O)CN2CCN(Cc3ccccc3)CC2)cs1`, the IC50 was found to be 52.6 µM in the series with HeLa; 66 µM in the series on HCT-116; 92.3 µM in the series with PC-3; 74.5 µM with HepG2; 84.8 µM with HEp-2; 57.7 µM in the series on MCF7.

For `COc1cccc2c1C(=O)c1c(O)c3c(c(O)c1C2=O)C[C@@](O)(C(=O)CO)C[C@@H]3O[C@H]1C[C@H](N)[C@H](O)[C@H](C)O1` [DOXORUBICIN], the Activity is on record as 25% in series [9], 27 g in series [10] and 78.9% in the series on Ehrlich.

Values taken from ChEMBL document CHEMBL5257091, “Hydrazinecarbonyl-thiazol-2-acetamides with pronounced apoptotic behavior: synthesis, in vitro/in vivo anti-proliferative activity and molecular modeling simulations” (Bioorg Med Chem Lett, 2023).
